Test results reported in PMC6405930, “Conservation of the Amyloid Interactome Across Diverse Fibrillar Structures” (Scientific Reports, 2019).
pKd: −log10 of the molar value.

Legend:
αSN fibrils [1] = molecular target: T1, αSN fibrils (Homo sapiens, UniProt P37840); test: Fibril titration with ThT (fluorescence); assay type: binding; conditions: titration experiment
Description: (§1) Fibril material (7.5 μg) was set up in 100 μL phosphate buffer in a 96 well half-area NBS plate (NUNC/Terma).

C-36 fibrils [2] = molecular target: T2, C-36 fibrils (Homo sapiens, UniProt P01009); test: Fibril titration with ThT (fluorescence); assay type: binding
T2 construct: the 36 residue C-terminal fragment of α1-antitrypsin (C-36)
Description: as §1

[3] = test system: chymotrypsinogen amorphous aggregates; test: Fibril titration with ThT (fluorescence); assay type: binding; conditions: TCA-induced amorphous aggregates
Description: as §1

Ab1 fibrils (Aβ(1–40)) = Ab1 fibrils (Aβ(1–40)) (Homo sapiens, UniProt P05067); test: Fibril titration with ThT (fluorescence); assay type: binding
Description: as §1

Ab2 fibrils (Aβ(1–40)) = Ab2 fibrils (Aβ(1–40)) (Homo sapiens, UniProt P05067); test: Fibril titration with ThT (fluorescence); assay type: binding
Description: as §1

αSN fibrils [4] = molecular target: T1, αSN fibrils; test: Determination of the binding capacity (dye depletion from supernatant); conditions: 2 nmol dye (20 µM) with 10 μg fibril material, one hour
Description: (§2) Control samples (without fibril material) were prepared similarly. Fibrils and fibril-bound ligand were pelleted by centrifugation (17,000 g, 30 min) and the supernatant (90 μL) was transferred to a 96 well half-area plate (Corning 3881).

C-36 fibrils [5] = molecular target: T2, C-36 fibrils; test: as above; conditions: 2 nmol dye (20 µM) with 10 μg fibril material, one hour
Description: as §2

glucagon fibrils [6] = molecular target: T3, glucagon fibrils (Homo sapiens, UniProt P01275); test: as above; conditions: 2 nmol dye (20 µM) with 10 μg fibril material, one hour
T3 construct: fibrils of the peptide hormone glucagon
Description: as §2

FAS4 AD aggregates = test system: T4, FAS4 AD aggregates; test: Fibril titration with ThT (fluorescence); assay type: binding, human; conditions: ThT mixed with FAS4 AD aggregates
T4 construct: a mutated version of the FAS1-4 domain of TGFBIp
Description: as §1

glucagon fibrils [7] = molecular target: T3, glucagon fibrils; test: Fibril titration with ThT (fluorescence); conditions: 7.5 μg fibril material, single-site binding model
Description: as §1

Ab2 fibrils [8] = test system: T5, Ab2 fibrils; test: Determination of the binding capacity (dye depletion from supernatant); set-up: species or system human; conditions: 2 nmol dye (20 µM) with 10 μg fibril material, one hour
T5 construct: Two structurally distinct fibrils of the Aβ(1–40) peptide associated with AD
Description: as §2

Ab1 fibrils [9] = test system: T6, Ab1 fibrils; test: as above; set-up: species or system human; conditions: 2 nmol dye (20 µM) with 10 μg fibril material, one hour
T6 construct: Synthetic amyloid β peptide 1–40 was purchased from Caslo Aps (Lyngby, Denmark); purchased Caslo Aps (Lyngby, Denmark); host or cells: synthetic peptide
Description: as §2

Ab1 fibrils [10] = test system: T6, Ab1 fibrils; test: Fibril incubation with CSF, quantitative MS/MS of bound proteins; assay type: binding, human; conditions: 4:1 w/w CSF protein:fibril
αSN fibrils [11] = molecular target: T1, αSN fibrils; test: Fibril incubation with plasma, quantitative MS/MS of bound proteins; assay type: binding; conditions: 50:1 w/w plasma protein:fibril
In short: (§3)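 Bound proteins quantified by XIC (three most abundant peptides), each normalized to run total intensity and averaged across nine LC-MS/MS experiments. Pellets came from 1 h room-temperature incubation of 20 μg fibrils with 500 μg plasma or 40 μg CSF protein in PBS with 5 mM EDTA.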

glucagon fibrils [12] = molecular target: T3, glucagon fibrils; test: as above; assay type: binding; conditions: 50:1 w/w plasma protein:fibril
FAS4-AD aggregates [13] = test system: T7, FAS4-AD aggregates; test: Fibril incubation with CSF, quantitative MS/MS of bound proteins; assay type: binding, human; set-up: key to Identification status of CSF protein bound: FAS4-AD: *: Identified, but not quantified; —: Not identified in any of the samples; conditions: symbol cells
T7 construct: aggregates of a mutated version of the FAS1-4 domain of TGFBIp

αSN fibrils [14] = molecular target: T1, αSN fibrils; test: as above; assay type: binding; conditions: 4:1 w/w CSF protein:fibril
FAS4-AD aggregates [15] = test system: T7, FAS4-AD aggregates; test: Fibril incubation with plasma, quantitative MS/MS of bound proteins; assay type: binding, human; conditions: 50:1 w/w plasma protein:fibril
In short: as §3

Ab2 fibrils [16] = test system: T5, Ab2 fibrils; test: as above; assay type: binding, human; conditions: 50:1 w/w plasma protein:fibril
glucagon fibrils [17] = molecular target: T3, glucagon fibrils; test: Fibril incubation with CSF, quantitative MS/MS of bound proteins; assay type: binding; conditions: 4:1 w/w CSF protein:fibril
C-36 fibrils [18] = molecular target: T2, C-36 fibrils; test: Fibril incubation with plasma, quantitative MS/MS of bound proteins; assay type: binding; conditions: 50:1 w/w plasma protein:fibril
Ab1 fibrils [19] = test system: T6, Ab1 fibrils; test: as above; assay type: binding, human; conditions: 50:1 w/w plasma protein:fibril
In short: as §3

[20] = test system: fibril systems (Ab1, Ab2, glucagon, αSN and C-36); test: Fibril incubation with CSF, quantitative MS/MS, span over the fibril systems; assay type: binding, human
Description: Plasma and CSF solutions were centrifuged (40,000 g, 20 min) to remove any aggregates. The protein concentration was determined using 280 nm absorbance assuming 1 Abs = 1 mg/mL. […] Control samples (without fibril material) were prepared similarly. All samples were incubated at room temperature for one hour under gentle agitation. Fibrils and fibril-bound proteins were pelleted by centrifugation at 17,000 g for 30 minutes. The supernatant (175 μL) was removed and the aggregate was re-suspended in 175 μL PBS and pelleted again before further preparation for gel analysis and spin-filter assisted digest for quantitative MS/MS. […]
(§4) The micro-purified tryptic peptides were dissolved in 0.1% formic acid, injected and trapped on an in-house packed trap column (2 cm × 100 μm I.D) with RP ReproSil-Pur C18-AQ 3 μm resin (Dr. Maisch GmbH). […] Elution from the analytical column was performed with a linear gradient from 5% to 35% phase B (90% acetonitrile with 0.1% formic acid) over 20 min for protein identification and 50 min for quantitative analysis, respectively.
All samples were analysed three times, yielding nine MS/MS experiments for each fibril for both plasma and CSF. […]

C-36 fibrils [21] = molecular target: T2, C-36 fibrils; test: Fibril incubation with CSF, quantitative MS/MS of bound proteins; assay type: binding; conditions: 4:1 w/w CSF protein:fibril
[22] = test system: fibril systems (Ab1, Ab2, glucagon, αSN and C-36); test: Fibril incubation with plasma, quantitative MS/MS, span over the fibril systems; assay type: binding, human
Description: Plasma and CSF solutions were centrifuged (40,000 g, 20 min) to remove any aggregates. The protein concentration was determined using 280 nm absorbance assuming 1 Abs = 1 mg/mL. […] Control samples (without fibril material) were prepared similarly. All samples were incubated at room temperature for one hour under gentle agitation. Fibrils and fibril-bound proteins were pelleted by centrifugation at 17,000 g for 30 minutes. The supernatant (175 μL) was removed and the aggregate was re-suspended in 175 μL PBS and pelleted again before further preparation for gel analysis and spin-filter assisted digest for quantitative MS/MS.
The fibril-protein pellets were transferred to spin-filters (0.22 μm), washed twice in PBS (100 μL) and once in 1 M NaCl (100 μL). The fibrils and fibril-bound proteins were dissolved by one-hour incubation in 100 μL 6 M guanidinium chloride followed by elution from the spin-filter. […]
as §4
All samples were analysed three times, yielding nine MS/MS experiments for each fibril for both plasma and CSF. For the area-based extracted ion chromatogram (XIC) quantification, the acquisition method was set up as an information-dependent acquisition (IDA) experiment collecting up to 25 MS/MS spectra in each 1.6 sec cycle using an exclusion window of 6 sec. […]
XIC quantification was based on the average ion intensity of the three most abundant peptides for each protein. Only proteins quantified in at least four out of nine MS/MS experiments per fibril were included in the quantification. […]

Ab2 fibrils [23] = test system: T5, Ab2 fibrils; test: Fibril incubation with CSF, quantitative MS/MS of bound proteins; assay type: binding, human; conditions: 4:1 w/w CSF protein:fibril
[24] = 7.5 μg fibril material, two-site binding model

T3 sequence (P01275 53-81 limits assumed): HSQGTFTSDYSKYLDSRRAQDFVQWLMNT
Chain of Ab2 fibrils (Aβ(1–40)) (P05067 672-711): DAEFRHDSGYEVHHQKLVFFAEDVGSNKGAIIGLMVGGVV
Chain of Ab1 fibrils (Aβ(1–40)) (P05067 672-711): as above
T2 sequence (P01009 383-418 limits assumed): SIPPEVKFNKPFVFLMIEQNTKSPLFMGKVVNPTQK

Cc1ccc2c(c1)sc(-c1ccc(N(C)C)cc1)[n+]2C [ThT, Thioflavin T]
ThT fluorescence level (αSN fibrils [1]): 2–5,000 RFU
maximum ThT fluorescence intensity (Imax) (C-36 fibrils [2]; 7.5 μg fibril material, single-site binding model): 12,500 rfu
pKd (C-36 fibrils [2]; 7.5 μg fibril material, single-site binding model, read-out: dissociation constant (kd)): 6.20
ThT fluorescence level (C-36 fibrils [2]; titration experiment): 12,500 RFU
ThT signal [3]: did not result in any ThT signal
Imax1 (Ab1 fibrils (Aβ(1–40)); [24]): 23,000 rfu
Imax2 (Ab1 fibrils (Aβ(1–40)); [24]): −22,000 rfu
ThT fluorescence level (Ab1 fibrils (Aβ(1–40)); titration experiment): 2–5,000 RFU
Imax1 (Ab2 fibrils (Aβ(1–40)); [24]): 23,000 rfu
Imax2 (Ab2 fibrils (Aβ(1–40)); [24]): −21,250 rfu
ThT fluorescence level (Ab2 fibrils (Aβ(1–40)); titration experiment): 2–5,000 RFU
Ligand bound (binding capacity) (αSN fibrils [4]): 42 nmol/mg fibril
Ligand bound (binding capacity) (C-36 fibrils [5]): 10 nmol/mg fibril
Ligand bound (binding capacity) (glucagon fibrils [6]): 18 nmol/mg fibril
ThT fluorescence (FAS4 AD aggregates): did not detect any fluorescence
maximum ThT fluorescence intensity (Imax) (glucagon fibrils [7]): 1,000 rfu
pKd (glucagon fibrils [7]; read-out: dissociation constant (kd)): 5.84
Ligand bound (binding capacity) (Ab2 fibrils [8]): 35 nmol/mg fibril
Ligand bound (binding capacity) (Ab1 fibrils [9]): 42 nmol/mg fibril

Vitronectin: plasma/CSF protein bound to fibrils
Relative composition of CSF proteins bound: Ab1 (Ab1 fibrils [10]): 1.1 ± 0.0 % of total protein
Relative composition of plasma proteins bound: αSN (αSN fibrils [11]): 9.3 ± 2.2 % of total protein
Relative composition of plasma proteins bound: Glucagon (glucagon fibrils [12]): 3.7 ± 0.1 % of total protein
Identification status of CSF protein bound: FAS4-AD (FAS4-AD aggregates [13]): —
Relative composition of CSF proteins bound: αSN (αSN fibrils [14]): 3.6 ± 0.2 % of total protein
Relative composition of plasma proteins bound: FAS4-AD (FAS4-AD aggregates [15]): 1.6 ± 0.4 % of total protein
Relative composition of plasma proteins bound: Ab2 (Ab2 fibrils [16]): 12.1 ± 2.1 % of total protein
Relative composition of CSF proteins bound: Glucagon (glucagon fibrils [17]): 0.2 ± 0.1 % of total protein
Relative composition of plasma proteins bound: C-36 (C-36 fibrils [18]): 4.9 ± 0.5 % of total protein
Relative composition of plasma proteins bound: Ab1 (Ab1 fibrils [19]): 17.1 ± 1.9 % of total protein
contribution to the fibril interactomes [20]: 0.2–3.6%
Relative composition of CSF proteins bound: C-36 (C-36 fibrils [21]): 0.8 ± 0.1 % of total protein
contribution to the fibril interactomes [22]: 3.7–17.1%
Relative composition of CSF proteins bound: Ab2 (Ab2 fibrils [23]): 1.3 ± 0.3 % of total protein
